Results on 4 compounds are retold here after PubChem BioAssay (NCI).

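Cells were grown in 96-well plates and exposed to each compound for 48 hours at five concentrations; endpoints were interpolated linearly between bracketing concentrations, or set to the highest concentration if not reached. Definition used: TGI = concentration required for complete inhibition of growth.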 Some results are limits rather than exact numbers.

Among the test systems are MCF7 breast; LOX IMVI melanoma; COLO 205 colon; SNB-75 CNS; HCC-2998 colon; SK-MEL-5 melanoma; CCRF-CEM leukemia; SK-MEL-2 melanoma; M14 melanoma; HCT-15 colon; HT29 colon.
What all share (experiment): inhibition of tumour cell growth, NCI panel, 48 h

As to `COP(=O)(Cc1ccccc1)Cc1ccccc1`, the TGI with MCF7 breast, in the test on LOX IMVI melanoma, with COLO 205 colon, with SNB-75 CNS, with HCC-2998 colon and in the test with SK-MEL-5 melanoma was greater than 100 µM in each case. Moreover, the TGI with CCRF-CEM leukemia, with SK-MEL-2 melanoma, with M14 melanoma, in the test on HCT-15 colon and in the test on HT29 colon was greater than 100 µM each time.

Regarding `O=C(NNC(c1ccccc1)C(F)(F)F)c1ccncc1` (centres undefined), the TGI with MCF7 breast, in the test with LOX IMVI melanoma, in the test on COLO 205 colon, in the test with SNB-75 CNS, in the test on HCC-2998 colon and with SK-MEL-5 melanoma was greater than 100 µM in each case. Besides, the TGI in the test with CCRF-CEM leukemia, in the test on SK-MEL-2 melanoma, with M14 melanoma, in the test on HCT-15 colon and in the test on HT29 colon was greater than 100 µM each time.

On to `[N-]=[N+]=Nc1c(C=O)c(=O)n(-c2ccccc2)c2ccccc12`, for which the TGI with MCF7 breast worked out at 64.2 µM; with LOX IMVI melanoma, 31.3 µM; with COLO 205 colon, 46.5 µM; in the test on SNB-75 CNS, 94.2 µM; with HCC-2998 colon it was 40.1 µM; in the test with SK-MEL-5 melanoma, 27.5 µM. In addition, the TGI with CCRF-CEM leukemia came to 18.9 µM; in the test with SK-MEL-2 melanoma it was 80.5 µM; in the test with M14 melanoma it was 34.1 µM; with HCT-15 colon, 46.4 µM; in the test with HT29 colon, 55.1 µM.

Turning to `COc1cc(C)cc2c1c(=O)c1ccccc1n2C`, the TGI with MCF7 breast was greater than 100 µM; in the test on LOX IMVI melanoma, 53.6 µM; with COLO 205 colon, 79.1 µM; in the test on SNB-75 CNS it was 99.4 µM; in the test with HCC-2998 colon, greater than 100 µM; in the test with SK-MEL-5 melanoma, 51.3 µM. In addition, the TGI was 68.5 µM in the test with CCRF-CEM leukemia; 49.9 µM in the test with SK-MEL-2 melanoma; greater than 100 µM with M14 melanoma; greater than 100 µM with HCT-15 colon; greater than 100 µM in the test with HT29 colon.
